Experimental findings from patent US9089136B2, “Pyrimidine compound and use thereof for pest control” (Sumitomo Chemical Company, Limited, priority 2010, dated 2015) are described below.

In experiment [1] the test system is Aphis gossypii. The experiment is described as follows: Test Example 1: spray test against Aphis gossypii on cucumber seedling. The class given is in vivo. Particulars: 144 h, 500 ppm active ingredient, formulation of Formulation Example 5 diluted with water, 20 ml sprayed on cucumber seedling, six days after spraying. Here is the method:
On the other hand, about 30 Aphis gossypii were incubated on a cucumber seeding (the first true leaf stage) planted in a plastic cup, and leaving it for a day. 20 ml of each of the above test spray solutions was sprayed on this seeding. Six days after spraying, the number of the surviving Aphis gossypii parasitized on the leaves of the cucumber was examined, and a control value was calculated according to the following equation: Control value(%)={1−(Cb×Tai)/(Cai×Tb))×100 wherein symbols represent as follows: Cb: the number of insects in a non-treated section before treatment, Cai: the number of insects in a non-treated section in observation, Tb: the number of insects in a treated-section before treatment, Tai: the number of insects in a treated-section in observation.

Experiment [2] deals with Bemisia tabaci. Briefly: Test Example 2: spray test against Bemisia tabaci instar larvae on tomato seedling. The class given is in vivo. The note with it: 168 h, 500 ppm active ingredient, formulation of Formulation Example 5 diluted with water, 10 ml/cup sprayed on tomato seedling, greenhouse at 25° C., after 7 days. As for the experimental part:
On the other hand, Bemisia tabaci adult was released on a tomato seeding (the third true leaf stage) planted in a polyethylene cup, and made to lay eggs for about 24 hours. The tomato seedling was kept in a greenhouse for 8 days. When instar larvae hatched from the eggs, the above test spray solution was sprayed in the amount of 10 ml/cup. The cup was kept in a greenhouse at 25° C. After the keeping for 7 days, the number of surviving instar larvae on the tomato leaves was examined, and a control value was calculated according to the following equation: Control value(%)={1−(Cb×Tai)/(Cai×Tb))×100 wherein symbols represent as follows: Cb: the number of pests in a non-treated section before treatment, Cai: the number of pests in a non-treated section in observation, Tb: the number of pests in a treated-section before treatment, Tai: the number of pests in a treated-section in observation.

The pest or weed control is how far the test organism was held down. A higher pest or weed control goes with strong suppression. Consider `CC[S+]([O-])c1cncnc1-c1nc2cc(C(F)(F)F)cnc2n1C` (stereo not shown) [Compound 5], for which the pest or weed control at 500 ppm in experiment [1] and in experiment [2] was ≥ 90% in each case.
As to `CCSc1cncnc1-c1nc2cc(C(F)(F)F)ccc2n1C` [Compound 7, 2-(5-ethylthiopyrimidin-4-yl)-1-methyl-5-trifluoromethyl-1H-benzimidazole], the pest or weed control at 500 ppm in experiment [1] and in experiment [2] was ≥ 90% in each case.
`Cn1c(-c2ccncn2)nc2cc(C(F)(F)F)ccc21` [Compound 2]: the pest or weed control at 500 ppm in experiment [1] and in experiment [2] was ≥ 90% throughout.
With `CCS(=O)(=O)c1cncnc1-c1nc2cc(C(F)(F)F)ccc2n1C` [Compound 9], the pest or weed control at 500 ppm in experiment [1] and in experiment [2] was ≥ 90% each time.
As for `Cn1c(-c2ncncc2Cl)nc2cc(C(F)(F)F)cnc21` [Compound 13], the pest or weed control at 500 ppm in experiment [1] and in experiment [2] was ≥ 90% in each case.
In the case of `Cn1c(-c2ncncc2OCC(F)(F)F)nc2cc(C(F)(F)F)cnc21` [Compound 3], the pest or weed control at 500 ppm in experiment [1] and in experiment [2] was ≥ 90% throughout.
Turning to `CCc1cncnc1-c1nc2cc(C(F)(F)F)cnc2o1` [Compound 15], the pest or weed control at 500 ppm in experiment [1] and in experiment [2] was ≥ 90% in each case.
With `CCSc1cncnc1-c1nc2cc(C(F)(F)F)cnc2n1C` [Compound 4], the pest or weed control at 500 ppm in experiment [1] and in experiment [2] was ≥ 90% each time.
Take `CC[S+]([O-])c1cncnc1-c1nc2cc(C(F)(F)F)ccc2n1C` (stereo not shown) [Compound 8]: the pest or weed control at 500 ppm in experiment [1] and in experiment [2] was ≥ 90% in each case.
For `CCc1cncnc1-c1nc2cc(C(F)(F)F)ccc2o1` [Compound 10], the pest or weed control at 500 ppm in experiment [1] and in experiment [2] was ≥ 90% each time.
Regarding `CCS(=O)(=O)c1cncnc1-c1nc2cc(C(F)(F)F)cnc2n1C` [Compound 6], the pest or weed control at 500 ppm in experiment [1] and in experiment [2] was ≥ 90% throughout.
